Columns and labels:
Assay in all cases: radiometric filter-binding kinase assay, Kinase HotSpot
Details in all cases: compound 0.5 µM; ATP 10 µM
[1] = target: MATK (human) (UniProt P42679)
[2] = target: DYRK1B (human) (UniProt Q9Y463)
[3] = target: BRAF (human) (UniProt P15056)
[4] = target: DYRK4 (human) (UniProt Q9NR20)
[5] = target: PKN2 (human) (UniProt Q16513)
[6] = target: ULK1 (human) (UniProt O75385)
[7] = target: MAPK9 (human) (UniProt P45984)
[8] = target: CAMK2D (human) (UniProt Q13557)
[9] = target: CSNK1E (human) (UniProt P49674)
Chain of CSNK1E (human) (P49674 whole entry, looked up): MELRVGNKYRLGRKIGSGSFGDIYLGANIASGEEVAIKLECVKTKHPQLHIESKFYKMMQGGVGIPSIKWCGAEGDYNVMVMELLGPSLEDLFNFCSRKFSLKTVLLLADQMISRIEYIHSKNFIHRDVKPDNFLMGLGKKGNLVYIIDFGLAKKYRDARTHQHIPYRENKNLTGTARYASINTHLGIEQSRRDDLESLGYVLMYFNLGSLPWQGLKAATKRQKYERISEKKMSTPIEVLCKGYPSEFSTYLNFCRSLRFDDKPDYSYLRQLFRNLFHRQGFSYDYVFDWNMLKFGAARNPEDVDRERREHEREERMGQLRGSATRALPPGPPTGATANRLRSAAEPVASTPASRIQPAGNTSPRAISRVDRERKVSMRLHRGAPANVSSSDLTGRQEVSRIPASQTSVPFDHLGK

[10] = target: MAPK11 (human) (UniProt Q15759)
Chain of MAPK11 (human) (Q15759 whole entry, looked up): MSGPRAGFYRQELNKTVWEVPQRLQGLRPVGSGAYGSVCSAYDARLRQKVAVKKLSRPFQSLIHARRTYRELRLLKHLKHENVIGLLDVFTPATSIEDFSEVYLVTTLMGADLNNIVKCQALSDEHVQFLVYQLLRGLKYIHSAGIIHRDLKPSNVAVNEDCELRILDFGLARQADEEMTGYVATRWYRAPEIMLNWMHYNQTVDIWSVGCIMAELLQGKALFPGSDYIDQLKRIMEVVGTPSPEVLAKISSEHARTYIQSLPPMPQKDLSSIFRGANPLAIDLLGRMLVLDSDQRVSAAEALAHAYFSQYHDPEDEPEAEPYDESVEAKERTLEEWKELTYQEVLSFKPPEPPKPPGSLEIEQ

[11] = target: JAK3 JH1 JH2 (human) (UniProt P52333)
Chain of JAK3 JH1 JH2 (human) (P52333 whole entry, looked up): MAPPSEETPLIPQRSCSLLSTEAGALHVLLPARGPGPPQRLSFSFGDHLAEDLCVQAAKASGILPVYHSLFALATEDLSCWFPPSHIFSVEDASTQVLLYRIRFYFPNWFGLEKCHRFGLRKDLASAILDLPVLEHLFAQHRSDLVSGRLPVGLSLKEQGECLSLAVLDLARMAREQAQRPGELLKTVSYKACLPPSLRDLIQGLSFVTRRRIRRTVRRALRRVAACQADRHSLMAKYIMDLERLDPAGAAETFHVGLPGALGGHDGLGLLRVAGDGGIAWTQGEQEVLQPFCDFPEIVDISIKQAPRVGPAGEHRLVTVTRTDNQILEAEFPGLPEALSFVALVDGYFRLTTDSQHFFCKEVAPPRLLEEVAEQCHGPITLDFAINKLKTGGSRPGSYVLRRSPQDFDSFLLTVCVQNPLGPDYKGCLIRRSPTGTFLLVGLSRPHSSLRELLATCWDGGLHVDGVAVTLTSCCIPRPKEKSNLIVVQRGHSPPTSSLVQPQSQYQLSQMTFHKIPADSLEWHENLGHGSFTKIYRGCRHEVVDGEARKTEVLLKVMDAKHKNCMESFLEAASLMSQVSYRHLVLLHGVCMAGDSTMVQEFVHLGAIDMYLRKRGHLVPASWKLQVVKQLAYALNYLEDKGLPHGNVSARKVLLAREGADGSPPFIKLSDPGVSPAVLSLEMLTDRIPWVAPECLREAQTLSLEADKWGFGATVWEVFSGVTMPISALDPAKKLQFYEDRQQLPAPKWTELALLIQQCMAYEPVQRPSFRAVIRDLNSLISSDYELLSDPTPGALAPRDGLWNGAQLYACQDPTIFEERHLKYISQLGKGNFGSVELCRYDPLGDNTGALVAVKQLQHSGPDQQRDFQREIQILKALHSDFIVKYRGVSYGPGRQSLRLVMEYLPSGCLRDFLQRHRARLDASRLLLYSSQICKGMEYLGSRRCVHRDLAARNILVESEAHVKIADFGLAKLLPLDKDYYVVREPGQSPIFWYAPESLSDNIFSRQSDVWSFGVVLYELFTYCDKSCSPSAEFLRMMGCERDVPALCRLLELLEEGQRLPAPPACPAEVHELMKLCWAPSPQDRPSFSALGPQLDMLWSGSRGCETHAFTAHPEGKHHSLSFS

[12] = target: PAK7 (human) (UniProt Q9P286)
[13] = target: TAOK2 (human) (UniProt Q9UL54)
[14] = target: CSNK2A2 (human) (UniProt P19784)
[15] = target: OXSR1 (human) (UniProt O95747)
[16] = target: PRKX (human) (UniProt P51817)
[17] = target: MAPK8 (human) (UniProt P45983)
Chain of MAPK8 (human) (P45983 whole entry, looked up): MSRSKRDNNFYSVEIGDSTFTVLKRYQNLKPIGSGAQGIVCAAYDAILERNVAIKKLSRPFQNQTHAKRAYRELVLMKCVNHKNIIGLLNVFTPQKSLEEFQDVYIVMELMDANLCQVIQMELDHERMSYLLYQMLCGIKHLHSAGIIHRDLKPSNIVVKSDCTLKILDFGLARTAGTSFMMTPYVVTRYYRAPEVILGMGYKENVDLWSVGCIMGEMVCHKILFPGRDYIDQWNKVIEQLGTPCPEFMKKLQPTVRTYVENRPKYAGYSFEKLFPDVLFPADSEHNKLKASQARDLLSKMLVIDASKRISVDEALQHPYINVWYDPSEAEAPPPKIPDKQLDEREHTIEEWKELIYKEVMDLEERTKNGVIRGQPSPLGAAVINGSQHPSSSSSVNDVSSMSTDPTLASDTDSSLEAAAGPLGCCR

[18] = target: STK33 (human) (UniProt Q9BYT3)
[19] = target: JAK2 JH1 JH2 (human) (UniProt O60674)
Chain of JAK2 JH1 JH2 (human) (O60674 whole entry, looked up): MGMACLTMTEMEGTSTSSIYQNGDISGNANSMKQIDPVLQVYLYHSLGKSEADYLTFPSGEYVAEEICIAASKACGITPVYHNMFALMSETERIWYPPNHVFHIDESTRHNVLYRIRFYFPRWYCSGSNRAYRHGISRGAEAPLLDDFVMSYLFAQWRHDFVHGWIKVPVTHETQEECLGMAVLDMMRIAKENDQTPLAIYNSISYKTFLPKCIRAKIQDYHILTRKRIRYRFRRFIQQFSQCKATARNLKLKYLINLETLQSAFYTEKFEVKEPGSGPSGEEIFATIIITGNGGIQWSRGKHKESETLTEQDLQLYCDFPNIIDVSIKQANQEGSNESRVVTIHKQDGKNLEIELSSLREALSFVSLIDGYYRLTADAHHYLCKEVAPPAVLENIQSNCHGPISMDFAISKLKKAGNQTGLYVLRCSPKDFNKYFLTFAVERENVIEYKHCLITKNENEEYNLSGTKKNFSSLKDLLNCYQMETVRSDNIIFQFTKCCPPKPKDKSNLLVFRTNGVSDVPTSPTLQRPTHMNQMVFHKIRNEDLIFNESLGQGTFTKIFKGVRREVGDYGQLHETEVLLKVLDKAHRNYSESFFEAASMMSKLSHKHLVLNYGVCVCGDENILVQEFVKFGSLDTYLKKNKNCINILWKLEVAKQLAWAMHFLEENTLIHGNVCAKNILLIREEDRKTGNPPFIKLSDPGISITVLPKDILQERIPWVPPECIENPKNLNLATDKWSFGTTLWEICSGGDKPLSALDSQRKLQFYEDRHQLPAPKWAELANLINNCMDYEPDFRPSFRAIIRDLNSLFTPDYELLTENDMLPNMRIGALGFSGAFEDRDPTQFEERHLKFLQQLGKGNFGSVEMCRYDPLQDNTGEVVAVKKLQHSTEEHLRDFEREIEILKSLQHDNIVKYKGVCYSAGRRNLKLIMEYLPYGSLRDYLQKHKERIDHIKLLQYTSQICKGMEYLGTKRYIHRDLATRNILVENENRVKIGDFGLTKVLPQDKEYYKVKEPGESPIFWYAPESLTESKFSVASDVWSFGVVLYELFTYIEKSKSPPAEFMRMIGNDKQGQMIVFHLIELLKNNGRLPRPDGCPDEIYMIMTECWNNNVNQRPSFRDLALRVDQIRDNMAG

[20] = target: RPS6KA4 KD2 (human) (UniProt O75676)
[21] = target: EPHB1 (human) (UniProt P54762)
[22] = target: IRAK4 (human) (UniProt Q9NWZ3)
[23] = target: PRKD2 (human) (UniProt Q9BZL6)
[24] = target: PBK (human) (UniProt Q96KB5)
Chain of PBK (human) (Q96KB5 whole entry, looked up): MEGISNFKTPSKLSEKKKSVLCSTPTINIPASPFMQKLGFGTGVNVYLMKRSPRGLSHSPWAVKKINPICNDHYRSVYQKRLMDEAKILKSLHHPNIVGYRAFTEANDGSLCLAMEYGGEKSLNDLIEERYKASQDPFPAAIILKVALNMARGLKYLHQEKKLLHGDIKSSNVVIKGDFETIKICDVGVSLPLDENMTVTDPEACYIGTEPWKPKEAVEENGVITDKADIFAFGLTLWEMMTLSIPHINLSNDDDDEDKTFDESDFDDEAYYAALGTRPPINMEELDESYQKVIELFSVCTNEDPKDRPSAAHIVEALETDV

[25] = target: CHUK (human) (UniProt O15111)
[26] = target: RPS6KA2 KD1 KD2 (human) (UniProt Q15349)
[27] = target: PRKCI (human) (UniProt P41743)
Chain of PRKCI (human) (P41743 whole entry, looked up): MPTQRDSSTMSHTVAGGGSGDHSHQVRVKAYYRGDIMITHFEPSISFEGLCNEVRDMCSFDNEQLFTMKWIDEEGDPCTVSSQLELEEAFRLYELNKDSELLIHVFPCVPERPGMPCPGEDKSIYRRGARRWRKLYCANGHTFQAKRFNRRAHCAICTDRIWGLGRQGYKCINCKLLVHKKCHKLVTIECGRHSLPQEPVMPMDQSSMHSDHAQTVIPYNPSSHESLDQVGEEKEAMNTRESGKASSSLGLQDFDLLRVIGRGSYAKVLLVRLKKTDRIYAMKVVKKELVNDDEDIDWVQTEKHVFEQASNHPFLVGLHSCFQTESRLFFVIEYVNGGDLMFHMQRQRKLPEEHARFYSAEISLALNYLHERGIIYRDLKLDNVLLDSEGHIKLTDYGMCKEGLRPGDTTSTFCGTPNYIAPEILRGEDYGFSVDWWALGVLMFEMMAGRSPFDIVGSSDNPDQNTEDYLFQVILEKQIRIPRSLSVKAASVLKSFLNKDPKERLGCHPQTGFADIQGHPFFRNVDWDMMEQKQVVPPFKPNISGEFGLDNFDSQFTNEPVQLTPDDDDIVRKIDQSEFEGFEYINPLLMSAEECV

[28] = target: ABL1 (human) (UniProt P00519)
[29] = target: PRKCH (human) (UniProt P24723)
[30] = target: CSK (human) (UniProt P41240)
[31] = target: SRPK1 (human) (UniProt Q96SB4)
[32] = target: CDK5 CDK5R1 p25 (human) (UniProt Q00535+Q15078)
[33] = target: RPS6KA3 KD1 KD2 (human) (UniProt P51812)
[34] = target: MAPK12 (human) (UniProt P53778)

Chain of DYRK1B (human) (Q9Y463 whole entry, looked up): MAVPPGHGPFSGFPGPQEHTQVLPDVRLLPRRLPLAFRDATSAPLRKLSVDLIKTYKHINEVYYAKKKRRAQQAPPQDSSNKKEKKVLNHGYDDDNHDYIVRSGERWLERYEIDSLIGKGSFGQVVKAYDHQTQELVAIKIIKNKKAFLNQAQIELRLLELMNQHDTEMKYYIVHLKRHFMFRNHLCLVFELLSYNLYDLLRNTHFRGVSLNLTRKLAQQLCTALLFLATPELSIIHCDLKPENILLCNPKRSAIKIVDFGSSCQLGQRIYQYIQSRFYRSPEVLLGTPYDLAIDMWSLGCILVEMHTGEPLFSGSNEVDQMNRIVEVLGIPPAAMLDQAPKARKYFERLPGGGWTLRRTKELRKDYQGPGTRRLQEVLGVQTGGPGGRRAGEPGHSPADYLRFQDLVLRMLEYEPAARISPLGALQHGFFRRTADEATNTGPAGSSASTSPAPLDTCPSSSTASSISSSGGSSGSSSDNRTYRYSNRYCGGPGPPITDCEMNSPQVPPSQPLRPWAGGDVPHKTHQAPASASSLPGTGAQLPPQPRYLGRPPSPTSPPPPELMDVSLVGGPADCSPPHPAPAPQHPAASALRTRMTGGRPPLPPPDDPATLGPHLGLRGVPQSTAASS

Structure (SMILES) | residual activity [1] | residual activity [2] | residual activity [4] | residual activity [5] | residual activity [6] | residual activity [7] | residual activity [8] | residual activity [9] | residual activity [10] | residual activity [11] | residual activity [12] | residual activity [13] | residual activity [14] | residual activity [15] | residual activity [16] | residual activity [17] | residual activity [18] | residual activity [19] | residual activity [20] | residual activity [21] | also measured
COc1ccc(CNC(=O)Nc2ncc([N+](=O)[O-])s2)cc1 | 96.6% | 99.4% | 97.7% | 101% | 97.7% | 135% | 98.3% | 102% | 95.4% | 105% | 95.4% | 98.5% | 92.9% | 95.9% | 72.1% | 104% | 100% | 104% | 101% | 102% | residual activity [3]: 93.4%; residual activity [22]: 101%; residual activity [23]: 97.3%; residual activity [24]: 110%; residual activity [25]: 97.1%; residual activity [26]: 100%; residual activity [27]: 94.4%; residual activity [28]: 96.8%; residual activity [29]: 64.1%; residual activity [30]: 102%; residual activity [31]: 92.9%; residual activity [32]: 97.7%
CC(C)[C@H](CO)Nc1nc(Nc2cc(N)cc(Cl)c2)c2ncn(C(C)C)c2n1 | 111% | 38.3% | 91.6% | 98% | 41.5% | 99.8% | 87.3% | 82.7% | 96.3% | 108% | 44.3% | 82.2% | 106% | 100% | 101% | 93.4% | 56.2% | 100% | 89.3% | 59.2% | residual activity [3]: 97.5%; residual activity [22]: 86.8%; residual activity [23]: 103%; residual activity [24]: 75.6%; residual activity [25]: 97.3%; residual activity [26]: 48.7%; residual activity [27]: 89.6%; residual activity [33]: 54.1%; residual activity [28]: 45.5%; residual activity [29]: 99.4%; residual activity [30]: 79.3%; residual activity [31]: 62.1%; residual activity [32]: 3.31%
O=C1Nc2ccccc2/C1=C1/Nc2ccccc2/C1=N\OCCC(O)CO (stereo unspecified) | 101% | 65.1% | 100% | 90.1% | 98.3% | 44.3% | 29.1% | 43.2% | 95.2% | 16.9% | 81% | 83.4% | 28.3% | 98.6% | 84.2% | 101% | 22.3% | 43.1% | 21.7% | 65.9% | residual activity [34]: 89.9%; residual activity [22]: 60.3%; residual activity [23]: 74.3%; residual activity [24]: 80.6%; residual activity [25]: 96.6%; residual activity [26]: 12.1%; residual activity [27]: 100%; residual activity [33]: 18.3%; residual activity [28]: 71.9%; residual activity [29]: 82.2%; residual activity [30]: 86.3%; residual activity [31]: 71.3%; residual activity [32]: 16.4%
Cc1nc2cc3nc(-c4cccs4)cnc3cc2n1C | 100% | 102% | 104% | 71% | 84.6% | 74.7% | 100% | 94.5% | 101% | 107% | 114% | 99.7% | 99% | 99.4% | 106% | 93.7% | 91.5% | 106% | 88.4% | 107% | residual activity [34]: 103%; residual activity [22]: 201%; residual activity [23]: 106%; residual activity [24]: 98.9%; residual activity [25]: 96.2%; residual activity [26]: 95%; residual activity [27]: 99.1%; residual activity [33]: 96.3%; residual activity [28]: 80.4%; residual activity [29]: 96.8%; residual activity [30]: 101%; residual activity [31]: 107%; residual activity [32]: 99.3%
